Results published in patent publication US7511065B2, “Mixed lineage kinase modulators” (Eli Lilly and Company, priority 2002, dated 2009).
Blank lines part the entries; values can stand above or below the compound they belong to.

Target: T1, MLK-7 (Homo sapiens, UniProt Q9NYL2)
T1 construct: GST; His tag; made in house; host or cells: Sf9 insect cells (baculovirus, pVL1392)
Experiment: In vitro assay of purified MLK-7 kinase activity (33P transfer from ATP to myelin basic protein)
Assay type: biochemical
Conditions: recombinant GST-tagged MLK-7 at 1 nm, 30 uM ATP, 5 uM MBP substrate, 2 hours room temperature; read-out: MLK7 IC50
How it was run: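 GST/His-tagged MLK-7 from Sf9 (baculovirus), 1 nM, with 5 uM MBP, 30 uM ATP plus 33P, 5 mM MgCl2, 2 mM DTT, 4% DMSO in 44 mM HEPES pH 7.4; 2 h at room temperature, stopped with phosphoric acid. Filter-bound 33P counted; IC50 for reduced phosphate transfer, Ki via Cheng-Prusoff.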

T1 sequence (Q9NYL2 1-455 isoform Q9NYL2-2): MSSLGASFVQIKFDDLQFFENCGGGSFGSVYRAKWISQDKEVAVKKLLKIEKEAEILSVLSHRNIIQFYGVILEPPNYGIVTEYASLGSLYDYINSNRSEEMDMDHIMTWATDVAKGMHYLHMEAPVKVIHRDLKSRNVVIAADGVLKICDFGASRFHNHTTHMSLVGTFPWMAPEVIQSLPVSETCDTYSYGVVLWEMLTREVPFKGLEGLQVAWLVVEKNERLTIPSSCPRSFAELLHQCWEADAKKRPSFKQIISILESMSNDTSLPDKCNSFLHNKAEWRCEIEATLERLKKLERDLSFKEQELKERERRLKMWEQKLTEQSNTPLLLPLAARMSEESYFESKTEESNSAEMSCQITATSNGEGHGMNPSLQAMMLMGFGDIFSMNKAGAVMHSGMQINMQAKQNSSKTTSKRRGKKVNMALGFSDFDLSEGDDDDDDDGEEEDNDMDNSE

Structure (SMILES): O=C(O)c1cc(C(=O)O)cc(-c2ccc3c(-c4c(-c5ccccn5)nn5c4CCC5)ccnc3c2)c1 [Example 79, 5-[4-(2-Pyridin-2-yl-5,6-dihydro-4H-pyrrolo[1,2-b]pyrazol-3-yl)quinolin-7-yl]isophthalic Acid Trifluoroacetic Acid]
IC50: ≤ 10000 nM

Structure (SMILES): COC(=O)c1cc(C(=O)OC)cc(-c2ccc3c(-c4c(-c5ccccn5)nn5c4CCC5)ccnc3c2)c1 [Example 80, 5-[4-(2-Pyridin-2-yl-5,6-dihydro-4H-pyrrolo[1,2-b]pyrazol-3-yl)quinolin-7-yl]isophthalic Acid Dimethyl Ester Trifluoroacetic Acid]
IC50: ≤ 10000 nM

Structure (SMILES): O=S1(=O)Cc2ccc(-c3ccc4c(-c5c(-c6ccccn6)nn6c5CCC6)ccnc4c3)cc2C1 [Example 81]
IC50: ≤ 100 nM

Structure (SMILES): Fc1ccc(-c2ccc3c(-c4c(-c5ccccn5)nn5c4CCC5)ccnc3c2)nc1 [Example 83, 7-(5-Fluoropyridin-2-yl)-4-(2-Pyridin-2-yl-5,6-dihydro-4H-pyrrolo[1,2-b]pyrazol-3-yl)quinoline Ditrifluoroacetic Acid]
IC50: ≤ 10000 nM

Structure (SMILES): COc1ccc(-c2ccc3c(-c4c(-c5ccccn5)nn5c4CCC5)ccnc3c2)nn1.O=C(O)C(F)F [Example 84, 7-(6-Methoxypyridazin-3-yl)-4-(2-Pyridin-2-yl-5,6-dihydro-4H-pyrrolo[1,2-b]pyrazol-3-yl)quinoline Difluoroacetic Acid]
IC50: ≤ 100 nM

Structure (SMILES): O=C(O)C(F)F.c1ccc(-c2nn3c(c2-c2ccnc4cc(-c5ncccn5)ccc24)CCC3)nc1 [Example 85, 4-(2-Pyridin-2-yl-5,6-dihydro-4H-pyrrolo[1,2-b]pyrazol-3-yl)-7-pyrimidin-2-yl-quinoline Difluoroacetic Acid]
IC50: ≤ 1000 nM

Structure (SMILES): O=C(O)C(F)F.c1ccc(-c2nn3c(c2-c2ccnc4cc(-c5nc6ccccc6[nH]5)ccc24)CCC3)nc1 [Example 87, 7-(1H-Benzoimdazol-2-yl)-4-(2-pyridin-2-yl-5,6-dihydro-4H-pyrrolo[1,2-b]pyrazol-3-yl)quinoline Difluoroacetic Acid]
IC50: ≤ 100 nM

Structure (SMILES): O=C(O)C(F)F.c1ccc(-c2nn3c(c2-c2ccnc4cc(-c5cncnc5)ccc24)CCC3)nc1 [Example 88, 4-(2-pyridin-2-yl-5,6-dihydro-4H-pyrrolo[1,2-b]pyrazol-3-yl)-7-pyrimidin-5-yl-quinoline Difluoroacetic Acid]
IC50: ≤ 1000 nM

Structure (SMILES): c1ccc(-c2nn3c(c2-c2ccnc4cc(-n5ccnn5)ccc24)CCC3)nc1 [Example 101, 4-(2-pyridin-2-yl-5,6-dihydro-4H-pyrrolo[1,2-b]pyrazol-3-yl-)-7-[1,2,3]triazol-1-yl-quinoline ditrifluoroacetic Acid]
IC50: ≤ 1000 nM

Structure (SMILES): CC(C)(C)OC(=O)N1CCN(c2ccc3c(-c4c(-c5ccccn5)nn5c4CCC5)ccnc3c2)CC1 [Example 102, 4-[4-(2-Pyridin-2-yl-5,6-dihydro-4H-pyrrolo[1,2-b]pyrazol-3-yl)-quinolin-7-yl]-piperazine-1-carboxylic Acid tert-Butyl Ester]
IC50: ≤ 10000 nM

Next, values leading:

IC50: ≤ 100 nM
Structure (SMILES): Nc1ccc(-c2ccc3c(-c4c(-c5ccccn5)nn5c4CCC5)ccnc3c2)cc1F [Example 78, 2-Fluoro-4-[4-(2-pyridin-2-yl-5,6-dihydro-4H-pyrrolo[1,2-b]pyrazol-3-yl)quinolin-7-yl]phenylamine Ditrifluoroacetic Acid]

IC50: ≤ 100 nM
Structure (SMILES): O=C(O)c1cccc(-c2ccc3c(-c4c(-c5ccccn5)nn5c4CCC5)ccnc3c2)n1 [Example 82, 6-[4-(2-Pyridin-2-yl-5,6-dihydro-4H-pyrrolo[1,2-b]pyrazol-3-yl)quinolin-7-yl]pyridine-2-carboxylic Acid Tris-trifluoroacetic Acid]

IC50: ≤ 100 nM
Structure (SMILES): NC(=O)CCCc1ccc(-c2ccc3c(-c4c(-c5ccccn5)nn5c4CCC5)ccnc3c2)cc1 [Example 86, 4-{4-[4-(2-Pyridin-2-yl-5,6-dihydro-4H-pyrrolo[1,2-b]pyrazol-3-yl)quinolin-7-yl]phenyl}butyramide Trifluoroacetic Acid]

IC50: ≤ 100 nM
Structure (SMILES): Nc1ccc(-c2ccc3c(-c4c(-c5ccccn5)nn5c4CCC5)ccnc3c2)cc1Cl [Example 90, 2-Chloro-4-[4-(2-pyridin-2-yl-5,6-dihydro-4H-pyrrolo[1,2-b]pyrazol-3-yl)-quinolin-7-yl]-phenylamine Ditrifluoroacetic Acid]

IC50: ≤ 100 nM
Structure (SMILES): Oc1c(F)cc(-c2ccc3c(-c4c(-c5ccccn5)nn5c4CCC5)ccnc3c2)cc1Cl [Example 91, 2-Chloro-6-fluoro-4-[4-(2-pyridin-2-yl-5,6-dihydro-4H-pyrrolo[1,2-b]pyrazol-3-yl)-quinolin-7-yl]-phenol Trifluoroacetic Acid]

IC50: ≤ 100 nM
Structure (SMILES): NS(=O)(=O)c1ccc(-c2ccc3c(-c4c(-c5ccccn5)nn5c4CCC5)ccnc3c2)s1 [Example 92, 5-[4-(2-Pyridin-2-yl-5,6-dihydro-4H-pyrrolo[1,2-b]pyrazol-3-yl)-quinolin-7-yl]-thiophene-2-sulfonic acid amide Trifluoroacetic Acid]

IC50: ≤ 100 nM
Structure (SMILES): Oc1cc(-c2ccc3c(-c4c(-c5ccccn5)nn5c4CCC5)ccnc3c2)cc(F)c1F [Example 93, 2,3-Difluoro-5-[4-(2-pyridin-2-yl-5,6-dihydro-4H-pyrrolo[1,2-b]pyrazol-3-yl)-quinolin-7-yl]-phenol Trifluoroacetic Acid]

IC50: ≤ 100 nM
Structure (SMILES): Nc1nc2ccc(-c3ccc4c(-c5c(-c6ccccn6)nn6c5CCC6)ccnc4c3)cc2s1 [Example 94, 6-[4-(2-Pyridin-2-yl-5,6-dihydro-4H-pyrrolo[1,2-b]pyrazol-3-yl)-quinolin-7-yl]-benzothiazol-2-yl amine Tris trifluoroacetic Acid]

IC50: ≤ 100 nM
Structure (SMILES): NS(=O)(=O)c1ccc(-c2ccc3c(-c4c(-c5ccccn5)nn5c4CCC5)ccnc3c2)cc1 [Example 95, 4-[4-(2-Pyridin-2-yl-5,6-dihydro-4H-pyrrolo[1,2-b]pyrazol-3-yl)-quinolin-7-yl]-benzenesulfonamide]

IC50: ≤ 100 nM
Structure (SMILES): NS(=O)(=O)c1cccc(-c2ccc3c(-c4c(-c5ccccn5)nn5c4CCC5)ccnc3c2)c1 [Example 96, 3-[4-(2-Pyridin-2-yl-5,6-dihydro-4H-pyrrolo[1,2-b]pyrazol-3-yl)-quinolin-7-yl]-benzenesulfonamide]

IC50: ≤ 1000 nM
Structure (SMILES): NS(=O)(=O)c1ccccc1-c1ccc2c(-c3c(-c4ccccn4)nn4c3CCC4)ccnc2c1 [Example 97, 2-[4-(2-Pyridin-2-yl-5,6-dihydro-4H-pyrrolo[1,2-b]pyrazol-3-yl)-quinolin-7-yl]-benzenesulfonamide]

IC50: ≤ 1000 nM
Structure (SMILES): c1ccc(-c2nn3c(c2-c2ccnc4cc(-n5ccnc5)ccc24)CCC3)nc1 [Example 98, 7-Imidazol-1-yl-4-(2-pyridin-2-yl-5,6-dihydro-4H-pyrrolo[1,2-b]pyrazol-3-yl)quinoline Ditrifluoroacetic Acid]

IC50: ≤ 1000 nM
Structure (SMILES): c1ccc(-c2nn3c(c2-c2ccnc4cc(-n5cncn5)ccc24)CCC3)nc1 [Example 99, 4-(2-Pyridin-2-yl-5,6-dihydro-4H-pyrrolo[1,2-b]pyrazol-3-yl)-7-[1,2,4]triazol-1-yl-quinoline ditrifluoroacetic Acid]

IC50: ≤ 100 nM
Structure (SMILES): c1ccc(-c2nn3c(c2-c2ccnc4cc(-n5cccn5)ccc24)CCC3)nc1 [Example 100, 7-Pyrazol-1-yl-4-(2-pyridin-2-yl-5,6-dihydro-4H-pyrrolo[1,2-b]pyrazol-3-yl)quinoline Trifluoroacetic Acid]
